Experimental data from patent US20090281025A1, “INHIBITION OF TUMOR GROWTH AND METASTASIS BY ATF2-DERIVED PEPTIDES” (Mount Sinai School Of Medicine of New York University, priority 2004, published 2009).
Values joined by “and” are separate entries in the source; they are usually repeats but may differ in a detail not shown here. Equal values may be shown once.

System: SW1 tumors
Assay: cDNA microarray gene expression profiling of SW1 tumors
Type: in vivo, mouse
Text: FIGS. 8A and 8B show gene profiling analysis of SW1 tumors expressing the ATF2^51-100 peptide. Tumors generated, in the absence or presence of a peptide, were used as source of mRNA for array analysis of 10K mouse genes (see Example 5). […] In all cases, the data represent analyses carried out 4 times from 4 different pools of tumors.
To elucidate the molecular pathways affected by expression of the ATF2^51-100 peptide, we used cDNA microarray analysis to compare the RNA expression profiles of SW1 tumors that express this peptide or a control vector (FIG. 8A). The 10k mouse Gem 2 gene set (Incyte Genomics Inc, Palo Alto, Calif.) was printed at the NCI on poly-L-lysine-coated glass using a Biorobotics TASII arrayer (Cambridge, England). All protocols for manufacturing and hybridization of microarrays are posted on the NCI web site (see, e.g., nciarray.nci.nih.gov). Approximately 20 μg of total RNA were used in the reverse transcription reaction to directly label the probe with Cy-5 dUTP or Cy-3 dUTP (Amersham). Hybridizations were performed at 65° C. for 12-18 h in a hybridization volume of 35 μL. The hybridized arrays were scanned using an Axon GenePix 4000 scanner (Union City, Calif.) and fluorescence data were collected using the GenePix software.
mRNA was prepared from a pool of 4 tumors obtained from two different experiments. In both cases, tumors were excised 2 weeks after subcutaneous injection of cells. Because the fluorescently labeled Cy dyes may incorporate into the reverse-transcribed cDNA with different efficiencies, RNA isolated from both cell types was always labeled with both combinations of Cy dyes. […] SW1 vector control cells were labeled with Cy-3 (F532) and the SW1-ATF 51-100 cells were labeled with Cy-5 (F635).

[1] = tumors expressing peptide vs control vector

Substance: ATF2^51-100: amino-terminal peptide of ATF2, amino acid residue 51 to 100 (about a 50 amino acid peptide), expressed in tumor cells (MTLKFGPARNDSVIVADQTPTPTRFLKNCEEVGLFNELASPFENEFKKAS; UniProt P15336 51-100, looked up, fragment)
- Ratio ATFp2-Cy5 vs parental control-Cy3: Isg15 (interferon-stimulated protein (15 kDa)) (down regulated, IMAGE: 1068714, hybridizations #1-#4, listed as ATFp2): 0.321 and 0.4337 and 0.4643 and 0.5141
- Ratio ATFp2-Cy5 vs parental control-Cy3: Ifit3 (interferon-induced protein with tetratricopeptide repeats 3) (down regulated, IMAGE: 1210036, hybridizations #1-#4, listed as ATFp2): 0.4750 and 0.4768 and 0.3824 and 0.3361
- Ratio ATFp2-Cy5 vs parental control-Cy3: Ensa (endosulfine alpha) (down regulated, IMAGE: 1278511, hybridizations #1-#4, listed as ATFp2): 0.4501 and 0.4517 and 0.4544 and 0.4479
- Ratio ATFp2-Cy5 vs parental control-Cy3: Myo5b (myosin Vb) (down regulated, IMAGE: 1378935, hybridizations #1-#4, listed as ATFp2): 0.2748 and 0.2758 and 0.2551 and 0.2439
- Ratio ATFp2-Cy5 vs parental control-Cy3: Mtap6 (microtubule-associated protein 6) (down regulated, IMAGE: 1430217, hybridizations #1-#4, listed as ATFp2): 0.3697 and 0.3710 and 0.5261 and 0.7243
- expression of Fas-associated genes [1]: down-regulation
- expression of growth-associated genes (epidermal growth factor, hepatoma-derived growth factor, insulin-like growth factor) and interferon-associated genes [1]: consistent down-regulation
- expression of tumor necrosis factor-related genes [1]: strongly upregulated
- Ratio ATFp2-Cy5 vs parental control-Cy3: Kifap3 (kinesin-associated protein 3) (upregulated, IMAGE: 331395, hybridizations #1-#4, listed as ATFp2): 2.1192 and 2.1268 and 2.9811 and 3.9220
- Ratio ATFp2-Cy5 vs parental control-Cy3: Hbb-b1 (hemoglobin, beta adult major chain) (upregulated, IMAGE: 332935, hybridizations #1-#4, listed as ATFp2): 3.1997 and 3.2112 and 2.7725 and 3.6146
- Ratio ATFp2-Cy5 vs parental control-Cy3: Hbb-b1 (hemoglobin, beta adult major chain) (upregulated, IMAGE: 518979, hybridizations #1-#4, listed as ATFp2): 2.8994 and 2.9099 and 2.4766 and 2.5621
- Ratio ATFp2-Cy5 vs parental control-Cy3: D0H4S114 (DNA segment, human D4S114) (upregulated, IMAGE: 535754, hybridizations #1-#4, listed as ATFp2): 3.0625 and 3.0736 and 4.2117 and 3.5432
- Ratio ATFp2-Cy5 vs parental control-Cy3: Scyb13 (small inducible cytokine subfamily B (Cys-X-Cys), member 13) (upregulated, IMAGE: 596683, hybridizations #1-#4, listed as ATFp2): 3.6935 and 3.7069 and 4.4104 and 4.1619
- Ratio ATFp2-Cy5 vs parental control-Cy3: C85356 (expressed sequence C85356) (upregulated, IMAGE: 776163, hybridizations #1-#4, listed as ATFp2): 6.2407 and 6.2633 and 5.4673 and 4.7632
- Ratio ATFp2-Cy5 vs parental control-Cy3: ESTs (upregulated, IMAGE: 809168, hybridizations #1-#4, listed as ATFp2): 2.6457 and 2.6552 and 2.6858 and 2.3889
- Ratio ATFp2-Cy5 vs parental control-Cy3: Mme (membrane metallo endopeptidase) (upregulated, IMAGE: 849871, hybridizations #1-#4, listed as ATFp2): 4.8477 and 4.8652 and 4.8096 and 4.5247
- Ratio ATFp2-Cy5 vs parental control-Cy3: Ogn (osteoglycin) (upregulated, IMAGE: 902951, hybridizations #1-#4, listed as ATFp2): 2.7606 and 2.7705 and 2.7398 and 2.3263
- Ratio ATFp2-Cy5 vs parental control-Cy3: RIKEN cDNA 1110068L01 gene (upregulated, IMAGE: 960604, hybridizations #1-#4, listed as ATFp2): 2.7162 and 2.7260 and 3.6427 and 3.9752
- Ratio ATFp2-Cy5 vs parental control-Cy3: Akr1c13 (aldo-keto reductase family 1, member C13) (upregulated, IMAGE: 1052178, hybridizations #1-#4, listed as ATFp2): 3.6319 and 3.6450 and 3.4859 and 3.4284
- Ratio ATFp2-Cy5 vs parental control-Cy3: Tna (tetranectin (plasminogen-binding protein)) (upregulated, IMAGE: 1068748, hybridizations #1-#4, listed as ATFp2): 5.0430 and 5.0612 and 4.9219 and 4.6123
- Ratio ATFp2-Cy5 vs parental control-Cy3: Top1 (topoisomerase (DNA) I) (upregulated, IMAGE: 1107479, hybridizations #1-#4, listed as ATFp2): 2.6799 and 2.6896 and 3.4635 and 3.3665
- Ratio ATFp2-Cy5 vs parental control-Cy3: Il1b (interleukin 1 beta) (upregulated, IMAGE: 1139544, hybridizations #1-#4, listed as ATFp2): 2.5423 and 2.5514 and 3.4806 and 3.3033
- Ratio ATFp2-Cy5 vs parental control-Cy3: Igfbp2 (insulin-like growth factor binding protein 2) (upregulated, IMAGE: 1277469, hybridizations #1-#4, listed as ATFp2): 3.2649 and 3.2767 and 3.3268 and 3.0043
- Ratio ATFp2-Cy5 vs parental control-Cy3: Igj (immunoglobulin joining chain) (upregulated, IMAGE: 1277614, hybridizations #1-#4, listed as ATFp2): 3.0715 and 3.0826 and 3.4986 and 4.0870
- Ratio ATFp2-Cy5 vs parental control-Cy3: Sp3 (trans-acting transcription factor 3) (upregulated, IMAGE: 1399769, hybridizations #1-#4, listed as ATFp2): 2.3816 and 2.3902 and 3.1712 and 3.6075
- Ratio ATFp2-Cy5 vs parental control-Cy3: Efemp1 (epidermal growth factor-containing fibulin) (upregulated, IMAGE: 1480170, hybridizations #1-#4, listed as ATFp2): 2.6354 and 2.6449 and 2.6270 and 2.3980
- Ratio ATFp2-Cy5 vs parental control-Cy3: Lum (lumican) (upregulated, IMAGE: 2101997, hybridizations #1-#4, listed as ATFp2): 2.5956 and 2.6050 and 2.6414 and 2.8732
